# Entries after “also recorded” stand apart in the source; their conditions may differ.
# Assays:
# STAT3 = STAT3 cytosolic phosphorylation and nuclear translocation, immunoblots of OSCC cell lines; format: cell-based, human
# Procedure: FIGS. 2A, 2B, and 2C show the treatment effects of fenretinide (4-HPR, 5 μM), 2-methoxyestradiol (2-ME, 2.5 μM) and the STAT3 inhibitor LY5 (0.5 μM) on STAT3 phosphorylation and nuclear translocation. (A) (JSCC1 cells) (B) (JSCC2 cells) and (C) (JSCC3 cells) were evaluated. Cytosolic and nuclear proteins were harvested from sera deprived JSCC1 and JSCC2 cell lines following 24 h of treatment (5 μM 4-HPR, 2.5 μM 2-ME, or 0.5 μM LY5) or vehicle (0.1% DMSO) control. […] As the JSCC3 cells don't constitutively express pSTAT3, these cells underwent 24 h stimulation in base medium supplemented with 10 ng/mL of IL-6 or 5 ng/mL of TGF-α, with or without 4-HPE, 2-ME or LY5 treatment, followed by harvest. […] (n=3, p<0.05, Wilcoxon matched pairs signed rank test).
# Dosing levels were determined by concurrent proliferation and viability studies in conjunction with literature values. The cells in every treatment group were then stimulated for 20 minutes with: vehicle (1 μl ddH2O), 50 ng/ml EGF, 50 ng/ml VEGF, or 50 ng/ml EGF+50 ng/ml VEGF, followed by standard immunoblotting and data normalization relative to GAPDH. […] Immunoblot images were captured (Li-Cor Odyssey imager) and analyzed (Li-Cor Image Studio, Version 4.0) to depict effects on treatment on phosphorylation relative to respective levels of GAPDH. […]
# [1] = 4-HPR release from PLGA implants, tumor and sera levels (UPLC/UV); format: in vivo, nude mice
# Text: Determination of 4-HPR tumor levels entailed recording tumor wet mass, addition of internal standard (acitretin) and RIPA lysis buffer, followed by homogenization, addition of acetonitrile and centrifugation. Acetretin percent recovery was compared to a RIPA buffer/acetonitrile extraction control solution spiked with equivalent amount of acetretin and 4-HPR. Sera preparation entailed addition of acetretin and acetonitrile, sonication, followed by centrifugation.
# SCC2095sc cells [10^6 cells suspended in 100 μl Matrigel (Corning Life Sciences, Corning, N.Y.)] were subcutaneously injected in the flanks of 6 week old male nude mice (n=6 per treatment group). Tumor measurements were recorded daily with calipers (greatest length and greatest width) and final tumor volumes calculated via tumor volume V=(length×width)×½. Treatment groups consisted of: 1) control (PBS injections)+blank (no drug) PLGA implants, 2) 2-ME (1 μg/100 μl PBS, b.i.d.)+blank PLGA implant, 3) 4-HPR releasing PLGA implant+PBS injections, 4) TOC q.d. (0.3 μg/100 μl PBS)+PLGA blank implant, 5) 2-ME (1 μg/100 μl PBS, b.i.d.)+4-HPR releasing PLGA implant, 6) 2-ME (1 μg/100 μl PBS, b.i.d.)+TOC q.d. (0.3 μg/100 μl PBS)+blank PLGA implant, 7) TOC q.d. (0.3 μg/100 μl PBS)+4-HPR releasing PLGA implant, 8) 2-ME (1 μg/100 μl PBS, b.i.d.)+TOC q.d. (0.3 μg/100 μl PBS)+4-HPR releasing PLGA implant. By day 14 post injection, all mice had measurable tumors and treatment began on day 15. […] Pretreatment mean tumor volumes therefore varied among treatment groups. PLGA implants (via trocar) and injections were placed in the center of the tumor. At day 28 post OSCC xenograft placement final tumor measurements were obtained, the mice were euthanized and OSCC tumors along with lung, liver and sera were harvested for pharmacokinetic, histologic and IHC analyses (Ki-67, cleaved caspase-3 and involucrin). Image analyses of the nuclear stains (Ki-67 and cleaved caspase 3) were conducted using Image-Pro Plus 6.2 software (Media Cybernetics, Rockville, Md.).
# Fenretinide solubility = format: physicochemical
# [2] = cited from earlier work
compound,measurement,setting,value
"CC1=C(/C=C/C(C)=C/C=C/C(C)=C/C(=O)Nc2ccc(O)cc2)C(C)(C)CCC1 [4-HPR, 4-hydroxy(phenyl)retinamide]",constitutive STAT3 phosphorylation and pSTAT3 nuclear translocation,"STAT3; JSCC1 and JSCC2 cells, 5 μM, 24 h",suppressed; also recorded: significantly reduced
same,suppression of STAT3 activation and nuclear translocation relative to STAT3 inhibitor LY5,"STAT3; JSCC1 cells, 5 μM 4-HPR vs 0.5 μM LY5",appreciably more effectively
same,detectable levels in the sera,"[1]; 4-HPR or its metabolites, any animals",absence of any detectable levels
same,concentration at 28 days post xenograft placement (treatment began on day 15),"[1]; male, nude, mouse, serum, all mice that received PLGA implants, below LLOQ",< 50 ng/mL
same,water solubility,Fenretinide solubility,below HPLC detection limit
same,solubility,"Fenretinide solubility; PBS+0.084% Tween 80, same as in bovine serum",21 µg/mL
same,log P,[2],8.03
